biological target: T1, human sGC (Homo sapiens, UniProt Q02153); assay: sGC enzyme assay, fluorescence polarisation of labelled cGMP; assay type: biochemical; settings: human sGC 1 nM, FP assay; concentration able to increase by 5-fold basal cGMP
T1 sequence (Q02153 1-619): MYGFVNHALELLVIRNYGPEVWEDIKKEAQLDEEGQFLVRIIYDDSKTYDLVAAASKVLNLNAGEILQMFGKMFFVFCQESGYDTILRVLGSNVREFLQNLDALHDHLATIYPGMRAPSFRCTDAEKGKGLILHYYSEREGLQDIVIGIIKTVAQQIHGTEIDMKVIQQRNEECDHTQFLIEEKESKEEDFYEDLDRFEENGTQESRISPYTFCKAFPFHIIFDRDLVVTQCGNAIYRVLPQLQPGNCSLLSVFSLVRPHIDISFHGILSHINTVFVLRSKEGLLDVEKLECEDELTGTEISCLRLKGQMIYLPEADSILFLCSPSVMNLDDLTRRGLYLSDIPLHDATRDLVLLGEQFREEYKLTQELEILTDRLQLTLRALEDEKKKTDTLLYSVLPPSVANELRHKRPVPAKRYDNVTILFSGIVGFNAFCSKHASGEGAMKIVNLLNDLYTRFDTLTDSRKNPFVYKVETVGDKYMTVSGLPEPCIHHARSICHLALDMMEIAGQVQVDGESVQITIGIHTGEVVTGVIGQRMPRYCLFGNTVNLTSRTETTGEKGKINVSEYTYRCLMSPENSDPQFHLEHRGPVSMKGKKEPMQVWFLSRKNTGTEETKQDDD
T1 sequence (Q02108 1-690 partner): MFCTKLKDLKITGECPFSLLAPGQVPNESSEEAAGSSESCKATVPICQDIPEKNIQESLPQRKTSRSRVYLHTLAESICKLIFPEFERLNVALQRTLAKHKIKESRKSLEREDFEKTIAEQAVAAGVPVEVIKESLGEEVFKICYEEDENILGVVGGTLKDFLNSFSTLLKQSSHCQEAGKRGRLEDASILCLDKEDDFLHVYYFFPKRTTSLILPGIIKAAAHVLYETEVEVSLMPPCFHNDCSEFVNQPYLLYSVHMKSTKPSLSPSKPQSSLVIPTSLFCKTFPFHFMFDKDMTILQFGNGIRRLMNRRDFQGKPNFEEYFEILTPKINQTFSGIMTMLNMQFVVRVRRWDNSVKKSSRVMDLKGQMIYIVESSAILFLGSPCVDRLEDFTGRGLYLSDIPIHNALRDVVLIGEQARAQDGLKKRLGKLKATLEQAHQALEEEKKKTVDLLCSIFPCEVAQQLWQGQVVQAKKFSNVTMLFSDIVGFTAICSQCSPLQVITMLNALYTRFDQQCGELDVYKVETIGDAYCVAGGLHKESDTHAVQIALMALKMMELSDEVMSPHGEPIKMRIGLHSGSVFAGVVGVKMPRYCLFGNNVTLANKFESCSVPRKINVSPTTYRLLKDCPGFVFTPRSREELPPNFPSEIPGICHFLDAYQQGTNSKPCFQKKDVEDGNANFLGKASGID
Procedure: The activity of soluble guanylate cyclase (sGC) was tested in an assay based on measuring the fluorescent polarisation (FP) signal of fluorescently labelled cGMP. FP increased on interaction with an anti-cGMP antibody as the motility of the molecule was reduced. Newly produced cGMP displaced the interaction giving rise to a decrease in polarisation and FP signal which was equated to enzyme activity. Compounds were incubated with human sGC, anti-cGMP antibody, the GTP substrate and fluorescently labelled cGMP. After a period of one hour the assay was stopped with the addition of EDTA and after a further hour the assay was read.
Human sGC was thawed and resuspended in assay buffer (100 mM TRIS, 10 mM MgCl2, 0.2 mM Tween 20, pH7.4, containing 1:100 dilution of sheep anti-cGMP) to give final concentration of 1 nM in the well. A substrate solution was prepared containing GTP and 8-fluo-cGMP in de-ionized water to a final concentration of 25 μM and 50 nM respectively. Assay plates containing 5 μL of various test compounds and of a standard agonist (50 μM-50 nM) in 1% DMSO as 6 point, four fold dilutions across a 96 well plate were used in the assay. The plate also contained 6 wells of DMSO (1%) to produce high control and a cGMP standard curve (14 nM to 10 μM) to convert FP data to cGMP concentration. 25 μL of enzyme mix and 20 μl of substrate mix described above were added to each well of the plate. Samples were mixed on an orbital shaker and then incubated at room temperature for 1 hour. After this incubation period 5 μl of 0.5M EDTA was added to all wells and the plates were incubated for a further hour at room temperature prior to reading the FP signal in an appropriate reader. For data handling FP data were converted to cGMP concentrations and then fitted using ActivityBase software. The activity of a test compound was determined as the pEC500 value which is the concentration able to increase by 5-fold basal cGMP.

Row | Compound | sGC pEC500
1 | Cc1cc(OCCCC(F)(F)F)ccc1CCc1ccccc1-c1cccc(-n2ncc(C(=O)O)c2C(F)(F)F)n1 [Example 1, 1-(6-(2-(2-methyl-4-(4,4,4-trifluorobutoxy)phenethyl)phenyl)pyridin-2-yl)-5-(trifluoromethyl)-1H-pyrazole-4-carboxylic acid] | 6.95
2 | Cc1cc(OCCCn2ccc(C(F)(F)F)n2)ccc1CCc1ccccc1-c1cccc(-n2ncc(C(=O)O)c2C(F)(F)F)n1 [Example 3, 1-(6-(2-(2-methyl-4-(3-(3-(trifluoromethyl)-1H-pyrazol-1-yl)propoxy)phenethyl)phenyl)pyridin-2-yl)-5-(trifluoromethyl)-1H-pyrazole-4-carboxylic acid] | 7.88
3 | O=C(O)c1cnn(-c2cccc(-c3ccccc3OCc3ccc(OCCCC(F)(F)F)cc3F)n2)c1C(F)(F)F [Example 5, 1-(6-(2-((2-fluoro-4-(4,4,4-trifluorobutoxy)benzyl)oxy)phenyl)pyridin-2-yl)-5-(trifluoromethyl)-1H-pyrazole-4-carboxylic acid] | 6.88
4 | Cc1cc(OCCCC#N)ccc1COc1ccccc1-c1cccc(-n2ncc(C(=O)O)c2C(F)(F)F)n1 [Example 9, 1-(6-(2-((4-(3-cyanopropoxy)-2-methylbenzyl)oxy)phenyl)pyridin-2-yl)-5-(trifluoromethyl)-1H-pyrazole-4-carboxylic acid] | 7.73
5 | Cc1cc(OCCCC(F)(F)F)ccc1COc1ccccc1-c1cccc(-n2ncc(C(=O)O)c2C(F)(F)F)n1 [Example 11, 1-(6-(2-((2-methyl-4-(4,4,4-trifluorobutoxy)benzyl)oxy)phenyl)pyridin-2-yl)-5-(trifluoromethyl)-1H-pyrazole-4-carboxylic acid] | 7.47

Other lines, results leading:

Row | sGC pEC500 | Compound
6 | 7.4 | COCCCOc1ccc(COc2ccccc2-c2cccc(-n3ncc(C(=O)O)c3C(F)(F)F)n2)c(F)c1 [Example 6, 1-(6-(2-((2-fluoro-4-(3-methoxypropoxy)benzyl)oxy)phenyl)pyridin-2-yl)-5-(trifluoromethyl)-1H-pyrazole-4-carboxylic acid]
7 | 7.79 | COCCCOc1ccc(COc2ccccc2-c2cccc(-n3ncc(C(=O)O)c3C(F)(F)F)n2)c(C)c1 [Example 10, 1-(6-(2-((4-(3-methoxypropoxy)-2-methylbenzyl)oxy)phenyl)pyridin-2-yl)-5-(trifluoromethyl)-1H-pyrazole-4-carboxylic acid]

— US20160214956A1, “NOVEL SOLUBLE GUANYLATE CYCLASE ACTIVATORS AND THEIR USE” (GLAXOSMITHKLINE INTELLECTUAL PROPERTY DEVELOPMENT LIMITED, priority 2013, published 2016)
